Patent US10238623B2, “C14-hydroxyl esterified amino acid derivative of triptolide, and preparation method and use thereof” (HANGZHOU WEBEN PHARMACEUTICALS INC, priority 2015, dated 2019)
Values joined by “and” are separate entries in the source; they are usually repeats but may differ in a detail not shown here. Equal values may be shown once.

Assays:
[1] = tested on: human chronic myelogenous leukemia K562/ADR cells; assay: K562/ADR subcutaneous xenograft in NOD/SCID mice; assay type: in vivo; conditions: for growth of K562/ADR cells in mice in vivo (in words): K562/ADR xenograft, intragastric 2 times a day, dose-dependent effect; for Tumor volume: K562/ADR
Experimental: (§1) 7-week old female NOD/SCID mice were taken and inoculated subcutaneously with 1×10^7 cells (0.2 ml) per mouse in axilla, with human K562/ADR cells on the left. When tumors grew to a tumor size of around 50-100 mm^3, the mice were randomized into groups with 3 mice each. An equivalent amount of PBS was used for the control group, and the TPL-DDV group was divided into two groups with 0.23 mg/kg body weight and 0.46 mg/kg body weight: intragastric administration, 2 times a day (one at 8 a.m. and one at 4 p.m.) for consecutive 14 days of treatment. An observation was made for total 30 days, during which the conditions of the mice such as tumor size, weight, activity, diet, and the like were measured. At the end of the experiment, the mice were sacrificed, tumor tissues were taken and the tumors were weighed, and major organs and tissues of the mice such as liver, spleen, heart, lung, large intestine, small intestine, and the like were examined.
as §1, with “TPL-LV” for “TPL-DDV”, “0.2” for “0.23”, “0.4” for “0.46”

[2] = Body weight and organ examination of tumour-bearing mice; assay type: in vivo, NOD/SCID mice; conditions: 14 days, individual mice
Experimental: (§2) 7-week old female NOD/SCID mice were taken and inoculated subcutaneously with 1×10^7 cells (0.2 ml) per mouse in axilla, with human acute myelogenous leukemia KG-1a cells on the left and human acute monocytic leukemia THP-1 cells on the right. When tumors grew to a tumor size of around 0.5 cm, the mice were randomized into groups with 3 mice each. An equivalent amount of PBS was used for the control group, and the 14-D-Valine-TPL group was divided into two groups with 0.2 mg/kg body weight and 0.4 mg/kg body weight: intragastric administration 2 times a day (one at 8 a.m. and one at 4 p.m.) for consecutive 14 days of treatment. An observation was made for total 30 days, during which the conditions of the mice such as tumor size, weight, activity, diet, and the like were measured. At the end of the experiment, the mice were sacrificed, tumor tissues were taken and the tumors were weighed, and major organs and tissues of the mice such as liver, spleen, heart, lung, large intestine, small intestine, and the like were examined.
as §1, with “acute myelogenous leukemia KG-1a” for “K562/ADR”, “TPL-LLV” for “TPL-DDV”
as §1, with “acute myelogenous leukemia KG-1a” for “K562/ADR”, “TPL-DLV” for “TPL-DDV”
as §1, with “acute myelogenous leukemia KG-1a” for “K562/ADR”, “TPL-DLV” for “TPL-DDV”, “0.32” for “0.23”, “0.64” for “0.46”, “examined. […]” for “examined.”

[3] = tested on: human acute myelogenous leukemia KG-1a cells; assay: KG-1a subcutaneous xenograft in NOD/SCID mice; assay type: in vivo; conditions: for growth of KG-1a in mice in vivo (in words): KG-1a xenograft, intragastric 2 times a day, dose-dependent effect; for Tumor volume: KG-1a
Experimental: as §2
as §1, with “acute myelogenous leukemia KG-1a” for “K562/ADR”, “TPL-LLV” for “TPL-DDV”
as §1, with “acute myelogenous leukemia KG-1a” for “K562/ADR”, “TPL-DLV” for “TPL-DDV”
as §1, with “acute myelogenous leukemia KG-1a” for “K562/ADR”, “TPL-DLV” for “TPL-DDV”, “0.32” for “0.23”, “0.64” for “0.46”

KG-1a = assay: MTT growth inhibition, KG-1a cells, 72 h; assay type: cell-based; conditions: Homo sapiens
Experimental: (§3) 5000 well-grown leukemia cells were taken and seeded into wells of a 96-well cell culture plate. The medium was 1640 cell medium containing 10% fetal bovine serum. 14-D-Valine-TPL with different concentrations was added, and after being uniformly mixed, the plate was placed in a carbon dioxide (5% CO2) cell incubator, and incubated at 37° C. for 72 hours. The concentration of live cells was then determined using the MTT assay. In this experiment, the cell viability in the control group (without the compound treatment) was set to be 100%, and the cell viability (%) after the action of the compound and the half maximal growth inhibitory concentration of leukemia cells at 72 hours (IC50 value at 72 hours) were calculated.

KG-1 = assay: MTT growth inhibition, KG-1 cells, 72 h; assay type: cell-based; conditions: Homo sapiens, KG-1, MTT
Experimental: as §3

THP-1 = assay: MTT growth inhibition, THP-1 cells, 72 h; assay type: cell-based; conditions: Homo sapiens, THP-1, MTT
Experimental: as §3

pancreatic cancer = conditions: cited from earlier work

Compound: CC(C)[C@@H](N)C(=O)N[C@@H](C(=O)O[C@@H]1[C@@]2(C(C)C)O[C@H]2[C@@H]2O[C@]23[C@]12O[C@H]2C[C@H]1C2=C(CC[C@@]13C)C(=O)OC2)C(C)C [14-D-Valine-D-Valine-TPL, 14-Dextro-Valine-Dextro-Valine-Triptolide]
- growth of K562/ADR cells in mice in vivo (in words) ([1]; 14 days): significantly inhibit the growth
- Tumor volume ([1]; 0.23 mg/kg, Overall): 0 mm^3
- Tumor volume ([1]; 0.46 mg/kg, Overall): 0 mm^3
- Tumor volume ([1]; trifluoroacetate 0.23 mg/kg intragastric 2 times a day, 14 days, individual mice): 0 mm^3
- Tumor volume ([1]; trifluoroacetate 0.46 mg/kg intragastric 2 times a day, 14 days, individual mice): 0 mm^3
- Body weight ([2]; K562/ADR-bearing mice, 0.23 mg/kg intragastric 2 times a day, listed as DDV, 0.23 mg/kg): 19.7 g and 21.2 g and 19.1 g
- Body weight ([2]; K562/ADR-bearing mice, 0.46 mg/kg intragastric 2 times a day, listed as DDV, 0.46 mg/kg): 20.5 g and 23.2 g and 19.3 g

Compound: CC(C)[C@]12O[C@H]1[C@@H]1O[C@]13[C@]1(O[C@H]1C[C@H]1C4=C(CC[C@@]13C)C(=O)OC4)[C@@H]2OC(=O)[C@H](Cc1ccc(O)cc1)NC(=O)[C@@H](N)Cc1ccccc1 [14-L-Phenylalanyl-L-tyrosine-TPL, 14-Levo-Phenylalanyl-Levo-tyrosine-Triptolide]
- growth of KG-1a in mice in vivo (in words) ([3]; 14 days): significantly inhibit the growth
- Tumor volume ([3]; 0.64 mg/kg, Overall): 0 mm^3
- Tumor volume ([3]; trifluoroacetate 0.32 mg/kg intragastric 2 times a day, 14 days, individual mice, listed as LPT): 168.07 mm^3 and 93.12 mm^3 and 131.17 mm^3
- Tumor volume ([3]; trifluoroacetate 0.64 mg/kg intragastric 2 times a day, 14 days, individual mice): 0 mm^3
- Body weight ([2]; KG-1a-bearing mice, 0.32 mg/kg intragastric 2 times a day, listed as LPT, 0.32 mg/kg): 20 g and 20.4 g and 21.4 g
- Body weight ([2]; KG-1a-bearing mice, 0.64 mg/kg intragastric 2 times a day, listed as LPT, 0.64 mg/kg): 19.4 g and 16.1 g and 17.4 g

Compound: CC(C)[C@H](N)C(=O)N[C@@H](C(=O)O[C@@H]1[C@@]2(C(C)C)O[C@H]2[C@@H]2O[C@]23[C@]12O[C@H]2C[C@H]1C2=C(CC[C@@]13C)C(=O)OC2)C(C)C [14-L-Valine-D-Valine-TPL, 14-Levo-Valine-Dextro-Valine-Triptolide]
- growth of KG-1a in mice in vivo (in words) ([3]; 14 days): significantly inhibit the growth
- Tumor volume ([3]; trifluoroacetate 0.23 mg/kg intragastric 2 times a day, 14 days, individual mice, listed as DLV): 562.66 mm^3 and 505.81 mm^3 and 1038.41 mm^3
- Tumor volume ([3]; trifluoroacetate 0.46 mg/kg intragastric 2 times a day, 14 days, individual mice, listed as DLV): 90.96 mm^3 and 265.32 mm^3 and 50.35 mm^3
- Body weight ([2]; KG-1a-bearing mice, 0.23 mg/kg intragastric 2 times a day, listed as DLV, 0.23 mg/kg): 19.5 g and 17.8 g and 19.6 g
- Body weight ([2]; KG-1a-bearing mice, 0.46 mg/kg intragastric 2 times a day, listed as DLV, 0.46 mg/kg): 19.6 g and 18.5 g and 18.8 g

Compound: CC(C)[C@H](N)C(=O)N[C@H](C(=O)O[C@@H]1[C@@]2(C(C)C)O[C@H]2[C@@H]2O[C@]23[C@]12O[C@H]2C[C@H]1C2=C(CC[C@@]13C)C(=O)OC2)C(C)C [14-L-Valine-L-Valine-TPL, 14-Levo-Valine-Levo-Valine-Triptolide]
- IC50 (KG-1a): 20 nM
- growth of KG-1a in mice in vivo (in words) ([3]; 14 days): significantly inhibit the growth
- Tumor volume ([3]; trifluoroacetate 0.23 mg/kg intragastric 2 times a day, 14 days, individual mice, listed as LLV): 804.56 mm^3 and 644.07 mm^3 and 1105.64 mm^3
- Tumor volume ([3]; trifluoroacetate 0.46 mg/kg intragastric 2 times a day, 14 days, individual mice, listed as LLV): 383.11 mm^3 and 356.82 mm^3 and 317.61 mm^3
- Body weight ([2]; KG-1a-bearing mice, 0.23 mg/kg intragastric 2 times a day, listed as LLV, 0.23 mg/kg): 19.4 g and 19.7 g and 20.5 g
- Body weight ([2]; KG-1a-bearing mice, 0.46 mg/kg intragastric 2 times a day, listed as LLV, 0.46 mg/kg): 20.0 g and 18.9 g and 18.6 g

Compound: CC(C)[C@H](N)C(=O)O[C@@H]1[C@@]2(C(C)C)O[C@H]2[C@@H]2O[C@]23[C@]12O[C@H]2C[C@H]1C2=C(CC[C@@]13C)C(=O)OC2 [14-L-Valine-TPL, 14-Levo-Valine-Triptolide]
- IC50 (KG-1): 8.86 nM
- IC50 (THP-1): 5 nM
- growth of K562/ADR cells in mice in vivo (in words) ([1]; 14 days): significantly inhibit the growth
- Tumor volume ([1]; trifluoroacetate 0.2 mg/kg intragastric 2 times a day, 14 days, individual mice, listed as LV): 73.63 mm^3 and 0 mm^3 and 159.87 mm^3
- Tumor volume ([1]; trifluoroacetate 0.4 mg/kg intragastric 2 times a day, 14 days, individual mice, listed as LV): 30.71 mm^3 and 96.79 mm^3 and 0 mm^3
- Body weight ([2]; K562/ADR-bearing mice, 0.2 mg/kg intragastric 2 times a day, listed as LV, 0.2 mg/kg): 18 g and 22.2 g and 22 g
- Body weight ([2]; K562/ADR-bearing mice, 0.4 mg/kg intragastric 2 times a day, listed as LV, 0.4 mg/kg): 21.2 g and 20.8 g and 21.1 g

Compound: CC(C)[C@]12O[C@H]1[C@@H]1O[C@]13[C@]1(O[C@H]1C[C@H]1C4=C(CC[C@@]13C)C(=O)OC4)[C@@H]2OCOP(=O)(O)O [Minnelide]
- toxic effect (pancreatic cancer; at a dosage effective to tumor regression): no significant toxic effect
- survival of mice (pancreatic cancer; nude mouse model of pancreatic cancer): prolonged the survival of mice
